Conditions in all cases: growth mode: biofilm, 24 h; exposure time: 24 h
Compound in assay [1]: T1, CCC(C)CCCC(=O)N[C@@H](CCN)C(=O)N[C@H](C(=O)N[C@@H](CCN)C(=O)N[C@H]1CCNC(=O)[C@H]([C@@H](C)O)NC(=O)[C@H](CCN)NC(=O)[C@H](CCN)NC(=O)[C@H](CC(C)C)NC(=O)[C@@H](CC(C)C)NC(=O)[C@H](CCN)NC1=O)[C@@H](C)O [colistin]
The experiment in a line: minimum concentration eradicating biofilm below detection limit (MCK-E); higher = more biofilm tolerance. On the procedure: (§1)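 Clinical P. aeruginosa isolates were grown as static biofilms for 24 h at 37 °C in LB in half-area 96-well plates, then exposed for 24 h to colistin at 1, 4, 16, 64, 256 or […]. Surviving CFU were counted by spotting serial dilutions. MCK is the lowest tested concentration giving the stated log reduction in CFU versus an untreated control; '>1024' means the reduction was not reached at the top dose, and 1 is the lowest dose tested (≤1).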

Compound in assay [2]: T2, NC[C@H]1O[C@H](O[C@H]2[C@H](O)[C@@H](O[C@H]3O[C@H](CO)[C@@H](O)[C@H](N)[C@H]3O)[C@H](N)C[C@@H]2N)[C@H](N)C[C@@H]1O [tobramycin]
The assay is described as above. As for the experimental part:
(§2)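 Clinical P. aeruginosa isolates were grown as static biofilms for 24 h at 37 °C in LB in half-area 96-well plates, then exposed for 24 h to tobramycin at 1, 4, 16, 64, 256 or […]. Surviving CFU were counted by spotting serial dilutions. MCK is the lowest tested concentration giving the stated log reduction in CFU versus an untreated control; '>1024' means the reduction was not reached at the top dose, and 1 is the lowest dose tested (≤1).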

Compound in assay [3]: T2, tobramycin
Nature of the assay: minimum concentration of killing, 1-log CFU reduction of biofilm (MCK90); higher = more biofilm tolerance. On the procedure:
as §2

Compound in assay [4]: T1, colistin
Nature of the assay: minimum concentration of killing, 2-log CFU reduction of biofilm (MCK99); higher = more biofilm tolerance. As for the experimental part:
as §1

Compound in assay [5]: T2, tobramycin
The experiment in a line: minimum concentration of killing, 4-log CFU reduction of biofilm (MCK99.99); higher = more biofilm tolerance. As for the experimental part: as §2

Compound in assay [6]: T1, colistin
The assay is described as above. On the procedure: as §1

Compound in assay [7]: T1, colistin
Nature of the assay: minimum concentration of killing, 1-log CFU reduction of biofilm (MCK90); higher = more biofilm tolerance. As for the experimental part:
as §1

Compound in assay [8]: T2, tobramycin
Nature of the assay: minimum concentration of killing, 2-log CFU reduction of biofilm (MCK99); higher = more biofilm tolerance. As for the experimental part:
as §2

Turning to “Pseudomonas aeruginosa clinical isolate CH2522”, the “minimum concentration eradicating biofilm below detection limit” value turned out to be 256 µg/mL in the assay with colistin [1] and 1020 µg/mL with tobramycin [2]. Also, the “minimum concentration of killing” value was determined as 16 µg/mL with tobramycin [3]; 64 µg/mL with colistin [4]; 1020 µg/mL with tobramycin [5]; 256 µg/mL in the assay with colistin [6]; 64 µg/mL with colistin [7]; 16 µg/mL with tobramycin [8].
For the test system “Pseudomonas aeruginosa clinical isolate ESP002”, the “minimum concentration eradicating biofilm below detection limit” value with colistin [1] and with tobramycin [2] was 256 µg/mL throughout. The “minimum concentration of killing” value in the assay with tobramycin [3] is 256 µg/mL; with colistin [4] it was 64 µg/mL; with tobramycin [5] it was 256 µg/mL; in the assay with colistin [6] it was 256 µg/mL; with colistin [7], 4 µg/mL; with tobramycin [8] it was 256 µg/mL.
For the test system “Pseudomonas aeruginosa clinical isolate ESP073”, the “minimum concentration eradicating biofilm below detection limit” value with colistin [1] and with tobramycin [2] was 256 µg/mL each time. Also, the “minimum concentration of killing” value with tobramycin [3] stood at 16 µg/mL; with colistin [4], 256 µg/mL; with tobramycin [5] it was 64 µg/mL; in the assay with colistin [6], 256 µg/mL; with colistin [7] it was 16 µg/mL; with tobramycin [8], 16 µg/mL.
Regarding “Pseudomonas aeruginosa clinical isolate ESP034”, the “minimum concentration eradicating biofilm below detection limit” value came out at 256 µg/mL in the assay with colistin [1] and 1020 µg/mL in the assay with tobramycin [2]. The “minimum concentration of killing” value is 4 µg/mL in the assay with tobramycin [3]; 256 µg/mL with colistin [4]; 1020 µg/mL with tobramycin [5]; 256 µg/mL with colistin [6]; 256 µg/mL with colistin [7]; 16 µg/mL with tobramycin [8].
As for “Pseudomonas aeruginosa clinical isolate ESP063”, the “minimum concentration eradicating biofilm below detection limit” value in the assay with colistin [1] was 256 µg/mL; with tobramycin [2], more than 1020 µg/mL. The “minimum concentration of killing” value with tobramycin [3] is 256 µg/mL; with colistin [4], 16 µg/mL; with tobramycin [5] it was more than 1020 µg/mL; with colistin [6], 256 µg/mL; with colistin [7], not above 1 µg/mL; in the assay with tobramycin [8] it was 1020 µg/mL.
As for “Pseudomonas aeruginosa clinical isolate CH2527”, the “minimum concentration eradicating biofilm below detection limit” value with colistin [1] worked out at 256 µg/mL; with tobramycin [2], 1020 µg/mL. Moreover, the “minimum concentration of killing” value was 64 µg/mL with tobramycin [3]; 256 µg/mL with colistin [4]; 256 µg/mL in the assay with tobramycin [5]; 256 µg/mL in the assay with colistin [6]; 256 µg/mL with colistin [7]; 64 µg/mL with tobramycin [8].
Take “Pseudomonas aeruginosa clinical isolate ESP072”: the “minimum concentration eradicating biofilm below detection limit” value in the assay with colistin [1] and with tobramycin [2] was 256 µg/mL in each case. The “minimum concentration of killing” value with tobramycin [3] amounted to 4 µg/mL; with colistin [4], 256 µg/mL; in the assay with tobramycin [5] it was 256 µg/mL; with colistin [6] it was 256 µg/mL; in the assay with colistin [7], 64 µg/mL; with tobramycin [8], 16 µg/mL.
Take “Pseudomonas aeruginosa clinical isolate ESP024”: the results for the “minimum concentration eradicating biofilm below detection limit” value in the assay with colistin [1] and with tobramycin [2] were 256 µg/mL and 64 µg/mL, respectively. For the same test system, the “minimum concentration of killing” value is not above 1 µg/mL with tobramycin [3]; 4 µg/mL in the assay with colistin [4]; 16 µg/mL with tobramycin [5]; 256 µg/mL in the assay with colistin [6]; 4 µg/mL in the assay with colistin [7]; 4 µg/mL with tobramycin [8].
Take “Pseudomonas aeruginosa clinical isolate ESP050”: the “minimum concentration eradicating biofilm below detection limit” value with colistin [1] was 256 µg/mL; with tobramycin [2], 1020 µg/mL. In addition, the “minimum concentration of killing” value in the assay with tobramycin [3] came out at 64 µg/mL; with colistin [4] it was 256 µg/mL; with tobramycin [5], 1020 µg/mL; in the assay with colistin [6], 256 µg/mL; in the assay with colistin [7] it was 64 µg/mL; with tobramycin [8] it was 1020 µg/mL.
In the case of “Pseudomonas aeruginosa clinical isolate F1823”, the “minimum concentration eradicating biofilm below detection limit” value is 1020 µg/mL in the assay with colistin [1] and more than 1020 µg/mL with tobramycin [2]. In addition, the “minimum concentration of killing” value is 4 µg/mL with tobramycin [3]; 256 µg/mL in the assay with colistin [4]; more than 1020 µg/mL with tobramycin [5]; 256 µg/mL in the assay with colistin [6]; 64 µg/mL in the assay with colistin [7]; 64 µg/mL with tobramycin [8].
In the case of “Pseudomonas aeruginosa clinical isolate CH5596”, the “minimum concentration eradicating biofilm below detection limit” value with colistin [1] and with tobramycin [2] was 256 µg/mL each time. For the same test system, the “minimum concentration of killing” value with tobramycin [3] stood at 4 µg/mL; with colistin [4] it was 64 µg/mL; with tobramycin [5] it was 64 µg/mL; with colistin [6] it was 256 µg/mL; with colistin [7], 64 µg/mL; with tobramycin [8], 4 µg/mL.
Turning to “Pseudomonas aeruginosa clinical isolate F1720”, the “minimum concentration eradicating biofilm below detection limit” value is 256 µg/mL with colistin [1] and more than 1020 µg/mL in the assay with tobramycin [2]. Besides, the “minimum concentration of killing” value in the assay with tobramycin [3] is 4 µg/mL; with colistin [4] it was 64 µg/mL; with tobramycin [5], 1020 µg/mL; with colistin [6], 256 µg/mL; with colistin [7], not above 1 µg/mL; with tobramycin [8], 64 µg/mL.
Take “Pseudomonas aeruginosa clinical isolate ESP040”: the “minimum concentration eradicating biofilm below detection limit” value in the assay with colistin [1] and in the assay with tobramycin [2] was 64 µg/mL throughout. The “minimum concentration of killing” value with tobramycin [3] amounted to 4 µg/mL; with colistin [4] it was 64 µg/mL; in the assay with tobramycin [5], 64 µg/mL; in the assay with colistin [6], 64 µg/mL; in the assay with colistin [7] it was 64 µg/mL; in the assay with tobramycin [8], 16 µg/mL.
For the test system “Pseudomonas aeruginosa clinical isolate ESP027”, the results for the “minimum concentration eradicating biofilm below detection limit” value with colistin [1] and with tobramycin [2] were 64 µg/mL and 1020 µg/mL, respectively. The “minimum concentration of killing” value is not above 1 µg/mL with tobramycin [3]; 64 µg/mL with colistin [4]; 1020 µg/mL with tobramycin [5]; 64 µg/mL in the assay with colistin [6]; 16 µg/mL with colistin [7]; 4 µg/mL in the assay with tobramycin [8].

The record behind these values is the supplement of paper PMC8920030.
